# Test results: the NIST ThermoML archive (doi:10.1021/je900909s)
# “And” between values parts separate entries of the source, which are not always exact repeats. Equal values may be shown once. ± gives the expanded uncertainty stated by the source.
# Test: cn = amount concentration of the nth substance listed, in mol/dm3
# Conditions: 101 kPa, Liquid, c1 = 2; for speed of sound: Frequency=4 MHz, Linear variable-path acoustic interferometer
SMILES,speed of sound (298.15 K),mass density (298.15 K),speed of sound (303.15 K),mass density (303.15 K),speed of sound (308.15 K),mass density (308.15 K),speed of sound (313.15 K),mass density (313.15 K),speed of sound (318.15 K),mass density (318.15 K),speed of sound (323.15 K),mass density (323.15 K),speed of sound (328.15 K),mass density (328.15 K)
[Cl-].[Na+] [sodium chloride] + O,1614.3 ± 2.1 m/s,1075 ± 1.4 kg/m3,1620.9 ± 2.1 m/s,1073 ± 1.5 kg/m3,1627.6 ± 2.1 m/s,1070.7 ± 1.5 kg/m3,1633.7 ± 2.1 m/s,1068.3 ± 1.6 kg/m3,1637.3 ± 2.1 m/s,1065.7 ± 1.7 kg/m3,1640.5 ± 2.2 m/s,1063.1 ± 1.7 kg/m3,1643.7 ± 2.2 m/s and 1642.7 ± 2.2 m/s,1060.2 ± 1.8 kg/m3
O=[N+]([O-])[O-].[Na+] [sodium nitrate] + O,1581.4 ± 2.1 m/s,1104.2 ± 1.5 kg/m3,1588.6 ± 2.1 m/s,1101.7 ± 1.5 kg/m3,1593.2 ± 2.1 m/s,1099 ± 1.6 kg/m3,1596.3 ± 2.1 m/s,1096.3 ± 1.7 kg/m3,1600.1 ± 2.1 m/s,1093.4 ± 1.7 kg/m3,1604.3 ± 2.1 m/s,1090.4 ± 1.8 kg/m3,1607.1 ± 2.1 m/s,1087.2 ± 1.8 kg/m3
